Data reported in patent US20060276465A1, “1,2-di(cyclic) substituted benzene compounds” (Eisai R&D Management Co., Ltd., priority 2003, published 2006).
Counter-ions that a name gives are not always drawn.

Experiments:
Jurkat cells = assay: Jurkat cell adhesion system (adhesion to immobilized human fibronectin, PMA-stimulated); type: cell-based; settings: concentration inhibiting by 50% the PMA-stimulated increase in adhered Jurkat cells on human fibronectin
Text: The “C1-6 haloalkyl” of Group A1 and Group A2 (mentioned below) is aforementioned “C1-6 alkyl” having 1-6 aforementioned “halogen” bonded thereto, as examples there may be mentioned straight-chain or branched-chain alkyl groups such as methyl, ethyl, n-propyl, isopropyl, n-butyl, isobutyl, s-butyl, t-butyl, pentyl, isopentyl, 2-methylbutyl, neopentyl, 1-ethylpropyl, hexyl, isohexyl, 4-methylpentyl, 3-methylpentyl, 2-methylpentyl, 1-methylpentyl, 3,3-dimethylbutyl, 2,2-dimethylbutyl, 1,1-dimethylbutyl, 1,2-dimethylbutyl, 1,3-dimethylbutyl, 2,3-dimethylbutyl, 1-ethylbutyl or 2-ethylbutyl, having fluorine or chlorine bonded thereto, among which C1-4 alkyl having 1 to 3 fluorine or chlorine bonded thereto is preferred, and trifluoromethyl is particularly preferred.
As examples of the “C2-7 alkylene”, where C2-7 alkylene is permissible only in the case that a spiro union is formed together with the substituted 5- to 10-membered cycloalkyl or the substituted 5- to 10-membered cycloalkenyl, of Group A1 and Group A2 (mentioned below), there may be mentioned straight-chain or branched-chain groups such as 1,2-ethylene, trimethylene, propylene, ethylethylene, tetramethylene, pentamethylene, hexamethylene or heptamethylene, among which 1,2-ethylene, trimethylene, tetramethylene or pentamethylene is preferred, and 1,2-ethylene, tetramethylene or pentamethylene is particularly preferred.
As examples of the “halogen” of Group W1 there may be mentioned the same ones listed above, among which fluorine or chlorine is preferred.
As examples of the “C1-6 alkyl” of Group W1 there may be mentioned the same ones listed above, among which C1-4 groups are preferred, and methyl or ethyl is particularly preferred.
The “C2-7 alkoxyalkyl” of Group W1 is aforementioned “C1-6 alkyl” having the aforementioned “C1-6 alkoxy” bonded thereto, of 2 to 7 carbon (total number of carbon), and as examples there may be mentioned methoxymethyl, methoxyethyl, ethoxyethyl, methoxypropyl or propoxyethyl, among which methoxymethyl is preferred.
As examples of the “C1-6 alkoxy” of the “C1-6 alkoxy optionally substituted with a substituent selected from Group T1” of Group W1 there may be mentioned the same ones listed above, among which C1-4 groups are preferred, and methoxy, ethoxy, isopropoxy or propoxy is particularly preferred.

[1] = system: human peripheral blood neutrophils; assay: Human peripheral blood neutrophil adhesion system (adhesion to HUVEC immobilized plate, PMA-stimulated); type: cell-based; settings: concentration inhibiting by 50% the PMA-stimulated increase in neutrophils adhered to HUVEC
Text: As examples of the “C2-7 alkylcarbonyl” of Group W1 there may be mentioned the same ones listed above, among which C2-5 groups are preferred, and acetyl is particularly preferred.
As examples of the “C1-6 alkyl” for R^6X and R^7X there may be mentioned the same ones listed above.
As examples of the “halogen” of Group C1 there may be mentioned the same ones listed above, among which bromine, fluorine or chlorine is preferred.
As examples of the “C1-6 alkyl” of Group C1 there may be mentioned the same ones listed above, among which C1-4 groups are preferred, and methyl is particularly preferred.
As examples of the “C1-6 alkoxy” of Group C1 there may be mentioned the same ones listed above, among which C1-4 groups are preferred, and methoxy or ethoxy is particularly preferred.
As examples of the “halogen” of Group D1 and Group D2 (mentioned below) there may be mentioned the same ones listed above, among which fluorine or chlorine is preferred.
As examples of the “C1-6 alkoxy” of Group D1 and Group D2 (mentioned below) there may be mentioned the same ones listed above, among which C1-4 groups are preferred, and methoxy or ethoxy is particularly preferred.
The “C1-6 alkylthio” of Group D1 is a thio group having the aforementioned “C1-6 alkyl” bonded thereto, and as examples there may be mentioned straight-chain or branched-chain groups such as methylthio, ethylthio, propylthio, isopropylthio, […], isobutylthio, s-butylthio, t-butylthio, pentylthio, isopentylthio, 2-methylbutylthio, neopentylthio, 1-ethylpropylthio, hexylthio, isohexylthio, 4-methylpentylthio, 3-methylpentylthio, 2-methylpentylthio, 1-methylpentylthio, 3,3-dimethylbutylthio, 2,2-dimethylbutylthio, 1,1-dimethylbutylthio, 1,2-dimethylbutylthio, 1,3-dimethylbutylthio, 2,3-dimethylbutylthio, 1-ethylbutylthio or 2-ethylbutylthio, among which C1-4 groups are preferred, and methylthio or ethylthio is particularly preferred.
As examples of the “C1-6 alkylsulfonyl” of Group D1 there may be mentioned the same ones listed above, among which C1-4 groups are preferred, and methylsulfonyl or ethylsulfonyl is particularly preferred.
The “C1-6 alkylsulfinyl” of Group D1 is a sulfinyl group having the aforementioned “C1-6 alkyl” bonded thereto, as examples there may be mentioned straight-chain or branched-chain groups such as methylsulfinyl, ethylsulfinyl, propylsulfinyl, isopropylsulfinyl, […], isobutylsulfinyl, s-butylsulfinyl, t-butylsulfinyl, pentylsulfinyl, isopentylsulfinyl, 2-methylbutylsulfinyl, neopentylsulfinyl, 1-ethylpropylsulfinyl, hexylsulfinyl, isohexylsulfinyl, 4-methylpentylsulfinyl, 3-methylpentylsulfinyl, 2-methylpentylsulfinyl, 1-methylpentylsulfinyl, 3,3-dimethylbutylsulfinyl, 2,2-dimethylbutylsulfinyl, 1,1-dimethylbutylsulfinyl, 1,2-dimethylbutylsulfinyl, 1,3-dimethylbutylsulfinyl, 2,3-dimethylbutylsulfinyl, 1-ethylbutylsulfinyl or 2-ethylbutylsulfinyl, among which C1-4 groups are preferred, and methylsulfinyl or ethylsulfinyl is particularly preferred.

[2] = system: colon-infiltrating neutrophils (myeloperoxidase enzyme activity); assay: Oxazolone-induced colon neutrophil infiltration model (colon myeloperoxidase activity); type: in vivo; settings: myeloperoxidase enzyme activity inhibitory rate vs oxazolone control group; 30 mg/kg orally 30 minutes prior to intrarectal challenge; colon 4 hours after challenge; male Balb/c mice
Text: The “di(C1-6 alkyl)amino” of Group D1 may be either symmetric or asymmetric, and as examples there may be mentioned straight-chain or branched-chain groups such as dimethylamino, methylethylamino, diethylamino, methylpropylamino, ethylpropylamino, dipropylamino, diisopropylamino, dibutylamino, diisobutylamino, di(s-butyl)amino, di(t-butyl)amino, methylpentylamino, dipentylamino, diisopentylamino, di(2-methylbutyl)amino, di(neopentyl)amino, di(1-ethylpropyl)amino, dihexylamino, methylisohexylamino, diisohexylamino, di(4-methylpentyl)amino, di(3-methylpentyl)amino, di(2-methylpentyl)amino, di(1-methylpentyl)amino, di(3,3-dimethylbutyl)amino, di(2,2-dimethylbutyl)amino, di(1,1-dimethylbutyl)amino, di(1,2-dimethylbutyl)amino, di(1,3-dimethylbutyl)amino, di(2,3-dimethylbutyl)amino, di(1-ethylbutyl)amino or di(2-ethylbutyl)amino, among which dimethylamino, methylethylamino or diethylamino is preferred, and dimethylamino is particularly preferred.
The “C2-7 alkylcarbonylamino” of Group D1 is an amino group having the aforementioned “C2-7 alkylcarbonyl” bonded thereto, and as examples there may be mentioned straight-chain or branched-chain groups such as acetylamino, ethylcarbonylamino, n-propylcarbonylamino, isopropylcarbonylamino, n-butylcarbonylamino, isobutylcarbonylamino, s-butylcarbonylamino, t-butylcarbonylamino, pentylcarbonylamino, isopentylcarbonylamino, 2-methylbutylcarbonylamino, neopentylcarbonylamino, 1-ethylpropylcarbonylamino, hexylcarbonylamino, isohexylcarbonylamino, 4-methylpentylcarbonylamino, 3-methylpentylcarbonylamino, 2-methylpentylcarbonylamino, 1-methylpentylcarbonylamino, 3,3-dimethylbutylcarbonylamino, 2,2-dimethylbutylcarbonylamino, 1,1-dimethylbutylcarbonylamino, 1,2-dimethylbutylcarbonylamino, 1,3-dimethylbutylcarbonylamino, 2,3-dimethylbutylcarbonylamino, 1-ethylbutylcarbonylamino or 2-ethylbutylcarbonylamino, among which amino groups having C2-5 alkylcarbonyl bonded thereto are preferred, and acetylamino or ethylcarbonylamino is particularly preferred.
As examples of the “3- to 8-membered cycloalkyl” of the “3- to 8-membered cycloalkyl optionally substituted with a substituent selected from Group H1” of Group D1 and the “3- to 8-membered cycloalkyl” of Group D2 (mentioned below) there may be mentioned the same ones listed above, among which cyclopropyl, cyclobutyl, cyclopentyl or cyclohexyl is preferred, cyclopropyl or cyclobutyl is more preferred, and cyclopropyl is most preferred.
As exampled of the “C2-7 alkoxycarbonyl” of Group D1 there may be mentioned the same ones listed above, among which methoxycarbonyl or ethoxycarbonyl is preferred. […]

| Structure (SMILES) | IC50 (Jurkat cells) [µM] | IC50 [1] [µM] | Ihibitory Rate (%) [2] [%] |
| --- | --- | --- | --- |
| CCCCN1CCN(c2c(NC3CCOCC3)cccc2C2=CCC(C(C)(C)C)CC2)CC1.Cl (racemic) [Example 5, [3-(4-t-Butylcyclohex-1-enyl)-2-(4-butylpiperazin-1-yl)phenyl](tetrahydropyran-4-yl)amine hydrochloride] | 2.9 | 11 | 3.0 |
| CCCCN1CCN(c2cc3c(cc2C2CCC(C(C)(C)C)CC2)N(C)C(=O)CO3)CC1 (centres unmarked) [Example 6, 6-(4-t-Butylcyclohexyl)-7-(4-butylpiperazin-1-yl)-4-methyl-4H-benzo[1,4]oxazin-3-one] | 2.9 | 11.7 | 48.0 |
| CCCCN1CCN(c2cc3c(cc2C2CCC(C(C)(C)C)CC2)N(C)CCO3)CC1.Cl (centres unmarked) [Example 7, 6-(4-t-Butylcyclohexyl)-7-(4-butylpiperazin-1-yl)-4-methyl-3,4-dihydro-2H-benzo[1,4]oxazine hydrochloride] | 4.9 | 17.4 | 24.0 |
| CCCCN1CCN(c2cc3c(cc2C2CC(C)(C)CC(C)(C)C2)OCCO3)CC1 [Example 15, 1-Butyl-4-[7-(3,3,55-tetramethylcyclohexyl)-2,3-dihydrobenzo[1,4]dioxin-6-yl]piperazine hydrochloride] | 4.7 | 11.8 | – |
| CCCCN1CCN(c2ccc(N3CCC4(CC3)OCCO4)cc2C2CCC(C(C)(C)C)CC2)CC1.Cl (centres unmarked) [Example 134, 8-{3-(4-t-Butylcyclohexyl)-4-(4-butylpiperazin-1-ylphenyl}-1,4-dioxa-8-aza-spiro [4.5]decane hydrochloride] | 4 | 6 | – |
| CCCCN1CCN(c2ccc(N3CCC4(CC3)OCCO4)cc2C2CCC(C(C)(C)C)CC2)CC1.Cl (centres unmarked) [Example 134] | – | – | 18.0 |
